# Paper PMC7596714, “Acute EPA-induced learning and memory impairment in mice is prevented by DHA” (Nature Communications, 2020)
# Target: T1, 5-HT6R (5-hydroxytryptamine6 receptor, serotonin 6 receptor) (Homo sapiens, UniProt P50406)
# T1 construct: gene HTR6
# Test: radioligand competition with [3H]-LSD; supported by cAMP accumulation in […] cells with human 5-HT6R plasmid
# Format: binding
# T1 sequence (P50406 whole entry): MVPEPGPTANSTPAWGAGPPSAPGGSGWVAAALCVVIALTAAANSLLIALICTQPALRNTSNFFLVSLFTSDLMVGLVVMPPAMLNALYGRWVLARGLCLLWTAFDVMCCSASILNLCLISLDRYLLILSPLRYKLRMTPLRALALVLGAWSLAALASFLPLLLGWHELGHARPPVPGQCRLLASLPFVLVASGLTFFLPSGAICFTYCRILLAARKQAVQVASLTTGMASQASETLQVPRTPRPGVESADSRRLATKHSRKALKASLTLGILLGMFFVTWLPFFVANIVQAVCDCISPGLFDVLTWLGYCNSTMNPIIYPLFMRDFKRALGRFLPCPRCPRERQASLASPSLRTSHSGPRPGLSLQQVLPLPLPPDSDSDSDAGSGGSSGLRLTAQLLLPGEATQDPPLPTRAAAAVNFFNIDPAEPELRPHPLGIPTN
smiles,measurement,value
"CC/C=C\C/C=C\C/C=C\C/C=C\C/C=C\CCCC(=O)O [EPA, Eicosapentaenoic acid]",IC50,26.6 µM
